pEC50: −log10 of the molar value.
Key:
[1] = system: Zucker obese fa/fa rats; assay: Oral Glucose Tolerance Test; type: in vivo, rat; conditions: 10 mg/kg; given orally 120 minutes before oral glucose 2 g/kg; Zucker obese fa/fa rats on high fat diet
Protocol: (2) Oral Glucose Tolerance Test (OGIT) Oral glucose tolerance tests were done on conscious Zucker obese fa/fa rats (age 12-13 weeks or older) fed a high fat diet (45% kcal fat) for at least two weeks prior to experimentation. The animals were fasted for 2 hours before use for experiments. A test compound or a vehicle was given orally 120 minutes before oral administration of a glucose solution at a dose of 2 g/kg body weight. Blood glucose levels were measured using a Accucheck glucometer from tail bled samples taken at different time points before and after administration of glucose (time course of […]). A time curve of the blood glucose levels was generated and the area-under-the-curve (AUC) for 120 minutes was calculated (the time of glucose administration being time zero). Percent reduction in glucose excursion was determined using the AUC in the vehicle-control group as zero percent reduction.

[2] = target: T1, recombinant human pancreatic GLK (Homo sapiens, UniProt P35557); assay: biochemical
T1 sequence (P35557 1-465): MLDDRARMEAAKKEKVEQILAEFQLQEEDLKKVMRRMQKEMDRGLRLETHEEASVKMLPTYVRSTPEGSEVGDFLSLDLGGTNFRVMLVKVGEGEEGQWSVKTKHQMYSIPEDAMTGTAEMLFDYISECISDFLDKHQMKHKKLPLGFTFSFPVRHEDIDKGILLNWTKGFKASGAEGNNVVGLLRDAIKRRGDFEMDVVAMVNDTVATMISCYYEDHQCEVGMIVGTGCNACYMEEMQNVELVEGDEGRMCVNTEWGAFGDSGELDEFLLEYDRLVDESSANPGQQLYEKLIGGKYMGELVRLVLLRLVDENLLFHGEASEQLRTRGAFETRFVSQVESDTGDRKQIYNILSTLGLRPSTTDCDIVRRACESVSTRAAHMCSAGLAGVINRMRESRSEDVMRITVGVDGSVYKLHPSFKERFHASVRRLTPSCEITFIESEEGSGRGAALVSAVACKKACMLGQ

| Structure (SMILES) | effect in the Oral Glucose Tolerance Test (percent reduction in glucose excursion, AUC vs vehicle control) [1] | pEC50 [2] |
| --- | --- | --- |
| Cn1ccc(NC(=O)c2cc(Oc3ccc(C(=O)N4CCC4)cc3)cc(O[C@H]3CCOC3)c2)n1 [Example 2, 3-{[4-(Azetidin-1-ylcarbonyl)phenyl]oxy}-N-(1-methyl-1H-pyrazol-3-yl)-5-[(3S)-tetrahydrofuran-3-yloxy]benzamide] | 42% |  |
| C#C[C@H](C)Oc1cc(Oc2ccc(C(=O)N3CCC3)cc2)cc(C(=O)Nc2ccn(C)n2)c1 [Example 7, 3-{[4-(Azetidin-1-ylcarbonyl)phenyl]oxy}-5-{[(15)-1-methylprop-2-yn-1-yl]oxy}-N-(1-methyl-1H-pyrazol-3-yl)benzamide] |  | 7.22 |
